Measurements: patent US12404304B1, “Telomerase reverse transcriptase (TERT) expression enhancing compounds and methods for using the same” (Sierra Sciences, LLC, priority 2007, dated 2025)
Where two headings read alike, the source gives them in different places.

How the values were obtained:
[1] = tested on: human TERT expression (hTERT mRNA); assay: Quantitative real-time RT-PCR of hTERT mRNA expression (Ct, transcripts) in compound-treated cells; assay type: cell-based
Procedure, shortened: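 Read-out is cycle threshold, the cycle at which probe fluorescence released by Taq 5′-nuclease activity crosses a set level; Ct falls as hTERT mRNA rises. cDNA of treated and untreated cells was compared, with starting transcripts quantified against a known-cDNA standard curve.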

viable cells in culture = assay: Cell viability assay (CellTiter-Glo Luminescent Cell Viability Assay, ATP quantitation, percent of vehicle control)

Cc1ccnc(NC(c2ccc([N+](=O)[O-])cc2)c2ccc3ccc(C)nc3c2O)c1 (centres unmarked) [compound 1081]
Average Number of hTERT Transcripts ([1]; quantitative real-time RT-PCR): 18.87
Average Cell Viability after 24 Hours (% DMSO) (viable cells in culture): 70.69 % DMSO

O=c1cc(Cc2ccccc2)[nH]c2c(-c3ccc(Cl)cc3)cnn12 [compound 1149]
Average Number of hTERT Transcripts ([1]; quantitative real-time RT-PCR): 91.14
Average Cell Viability after 24 Hours (% DMSO) (viable cells in culture): 87.19 % DMSO

CSc1nc(C2CC2)cc(-c2ccccc2)c1C#N [compound 1556]
Average Number of hTERT Transcripts [1]: 85.40
Average Cell Viability after 24 Hours (% DMSO) (viable cells in culture): 90.02 % DMSO

CCCCOC(=O)c1c(C)oc2ccc(NS(=O)(=O)c3ccc4ccccc4c3)cc12 [compound 1237]
Average Number of hTERT Transcripts ([1]; quantitative real-time RT-PCR): 43.79
Average Cell Viability after 24 Hours (% DMSO) (viable cells in culture): 71.28 % DMSO

O=C(NCCN1CCNC1=O)c1cc(-c2cccs2)on1 [compound 1509]
Average Number of hTERT Transcripts [1]: 72.08
Average Cell Viability after 24 Hours (% DMSO) (viable cells in culture): 73.34 % DMSO

O=C(NC(=S)Nc1cc([N+](=O)[O-])ccc1O)c1ccc(Br)o1 [compound 1418]
Average Number of hTERT Transcripts [1]: 42.80
Average Cell Viability after 24 Hours (% DMSO) (viable cells in culture): 94.19 % DMSO

O=C(Nc1nc(-c2ccccn2)cs1)C1COc2ccccc2O1 (centres unmarked) [compound 1204]
Average Number of hTERT Transcripts ([1]; quantitative real-time RT-PCR): 76.87
Average Cell Viability after 24 Hours (% DMSO) (viable cells in culture): 55.98 % DMSO

O=C(N/N=C/c1c(O)ccc2ccccc12)c1ccc(CO)nc1 [compound 1527]
Average Number of hTERT Transcripts [1]: 15.53
Average Cell Viability after 24 Hours (% DMSO) (viable cells in culture): 89.01 % DMSO

CC1=NN(c2ccccc2)C(=O)C1C(=O)c1ccc(Br)cc1 (centres unmarked) [compound 1115]
Average Number of hTERT Transcripts ([1]; quantitative real-time RT-PCR): 59.18
Average Cell Viability after 24 Hours (% DMSO) (viable cells in culture): 81.68 % DMSO

Cc1nn(-c2cc(N3CCN(S(=O)(=O)c4ccc(Cl)cc4)CC3)ccc2[N+](=O)[O-])c(=O)c2ccccc12 [compound 1407]
Average Number of hTERT Transcripts [1]: 3.38
Average Cell Viability after 24 Hours (% DMSO) (viable cells in culture): 109.75 % DMSO

Cc1cc(NC(=O)C2c3ccccc3Oc3ccccc32)n(-c2nc(C)c(C)c(=O)[nH]2)n1 [compound 1295]
Average Number of hTERT Transcripts ([1]; quantitative real-time RT-PCR): 45.40
Average Cell Viability after 24 Hours (% DMSO) (viable cells in culture): 66.62 % DMSO

Cc1ccc(N)cc1S(=O)(=O)N1CCCCC1 [compound 1341]
Average Number of hTERT Transcripts ([1]; quantitative real-time RT-PCR): 4.50
Average Cell Viability after 24 Hours (% DMSO) (viable cells in culture): 110.20 % DMSO

Cc1nn2c(=O)cc(-c3ccccc3)[nH]c2c1-c1ccccc1 [compound 1162]
Average Number of hTERT Transcripts ([1]; quantitative real-time RT-PCR): 113.08
Average Cell Viability after 24 Hours (% DMSO) (viable cells in culture): 65.07 % DMSO

Cc1nnc(SCC2=NN(c3nc4ccccc4[nH]3)C(=O)C2)s1 [compound 1118]
Average Number of hTERT Transcripts ([1]; quantitative real-time RT-PCR): 54.45
Average Cell Viability after 24 Hours (% DMSO) (viable cells in culture): 73.41 % DMSO

Cc1ccn2c(-c3csc(Nc4ccc(C(=O)O)cc4)n3)c(C)nc2c1 [compound 1320]
Average Number of hTERT Transcripts ([1]; quantitative real-time RT-PCR): 8.00
Average Cell Viability after 24 Hours (% DMSO) (viable cells in culture): 90.39 % DMSO

Cc1sc(CO)c(Sc2ccccc2)c1C(=O)O [compound 1314]
Average Number of hTERT Transcripts ([1]; quantitative real-time RT-PCR): 8.82
Average Cell Viability after 24 Hours (% DMSO) (viable cells in culture): 109.57 % DMSO

CCCC1=NN(c2ccc(Cl)cc2)C(=O)C1 [compound 1122]
Average Number of hTERT Transcripts ([1]; quantitative real-time RT-PCR): 13.40
Average Cell Viability after 24 Hours (% DMSO) (viable cells in culture): 66.57 % DMSO

Cc1ccc(S(=O)(=O)Nc2ccccc2C(=O)NCCc2ccccc2)cc1[N+](=O)[O-] [compound 1424]
Average Number of hTERT Transcripts [1]: 37.45
Average Cell Viability after 24 Hours (% DMSO) (viable cells in culture): 94.37 % DMSO

CCCC(=O)NC(c1ccc(SC)cc1)c1ccc2cccnc2c1O (centres unmarked) [compound 1010]
Average Number of hTERT Transcripts ([1]; quantitative real-time RT-PCR): 35.70
Average Cell Viability after 24 Hours (% DMSO) (viable cells in culture): 86.63 % DMSO

CCCCN(CC)C(=O)CSc1ccccc1 [compound 1398]
Average Number of hTERT Transcripts [1]: 8.01
Average Cell Viability after 24 Hours (% DMSO) (viable cells in culture): 87.02 % DMSO

COc1ccccc1-n1c(=O)oc2ccc(Cl)cc2c1=O [compound 1242]
Average Number of hTERT Transcripts ([1]; quantitative real-time RT-PCR): 56.42
Average Cell Viability after 24 Hours (% DMSO) (viable cells in culture): 80.60 % DMSO

Brc1ccc(CSc2ccc(-c3ccccn3)nn2)cc1 [compound 1258]
Average Number of hTERT Transcripts ([1]; quantitative real-time RT-PCR): 12.89
Average Cell Viability after 24 Hours (% DMSO) (viable cells in culture): 53.72 % DMSO
